Reference: patent publication US12415819B2, “Cu- and Ni-catalyzed decarboxylative borylation reactions” (The Scripps Research Institute, priority 2017, dated 2025)

Columns and labels:
in vitro [1] = details: mouse, pH 7.4; for Extraction ratio / Microsomal stability (Mouse ER) / Remaining (*NCF = 60min) / Remaining (T = 60 min): 1 μM; for Microsomal stability (Mouse ER) / Remaining (*NCF = 60min) / Remaining (T = 60 min) / CLint scaled at 1 μM / half-life at 1 μM / microsomal CLint at 1 μM: microsomes; for Remaining (*NCF = 60min) / Remaining (T = 60 min): 1 h
Experimental: 100 mM potassium phosphate buffer, pH 7.4. • 2. 10 mM MgCl2 • 3) Compound Dilution:
Intermediate solution was prepared by diluting 5 μL of compound or control stock solution (10 mM in DMSO) with DMSO (45 μL) and 1:1 Methanol/Water (450 μL) (concentration=100 μM, 45% MeOH). Working solution was prepared by diluting 50 μL of the intermediate solution with 450 μL of 100 mM potassium phosphate buffer, pH=7.4 (centration=10 μM, 4.5% MeOH). • 4) NADPH regenerating system (final Isocitric dehydrogenase concentration=1 unit/mL at incubation) comprised:
10 μL/well of compound working solution or control working solution was added to all plates (T0, T5, T10, T20, T30, T60, NCF60) except the matrix blank. 80 μL/well of microsome solution was added to every plate. The mixtures of microsome solution and compound were incubated at 37° C. for about 10 min. 10 μL/well of NADPH regenerating system (pre-warmed to 37° C.) was then added to every plate to start the reaction. […] For NCF60 (abbreviation of no co-factor) no NADPH regenerating system was added, but was replaced by 10 μL/well of potassium phosphate buffer (100 mM, pH 7.4); the resulting mixture was incubated at 37° C. for 1 h.
The reactions were then terminated with the stop solution (cold at 4° C.) containing 100 ng/mL Tolbutamide and 100 ng/mL Labetalol ([…]). The sampling plates were shaken for approximately 10 minutes, then were centrifuged at 4000 rpm for 20 min at 4° C. While centrifuging, 8 new 96 well plates were loaded with […] of HPLC grade water. 100 μL of supernatant was finally added to 300 μL of HPLC grade water and mixed for LC/MS/MS analysis.
The equation of first order kinetics was used to calculate T1/2 and CIint(mic): […]

in vitro [2] = details: human
Experimental: Digoxin, fenoterol, and propranol were used as standards respectively. Transport Method:
The transport buffer used in the study was HBSS with 10 mM HEPES at pH 7.40±0.05. Compounds were tested at 2 μM bi-directionally in duplicates. Digoxin was tested at […] bi-directionally in a duplicate, while fenoterol and propranolol were tested at 2 μM in A(apical) to B (basolateral) direction in duplicates. The final DMSO concentration was adjusted to less than 1%. The plate was incubated for 2 hours in a CO2 incubator at 37±1° C., with 5% CO2 at saturated humidity without shaking. All samples, after mixing with acetonitrile containing internal standard, were centrifuged at 4000 rpm for 20 min. Subsequently,100 μL supernatant solution was diluted with 100 μL distilled water for LC/MS/MS analysis. Concentrations of test and control compounds in starting solution, donor solution, and receiver solution were quantified by LC/MS/MS methodologies, using peak area ratio of analyte/internal standard. After transport assay, lucifer yellow rejection assay was applied to determine the Caco-2 cell monolayer integrity.
Data analysis: The apparent permeability coefficient Papp (cm/s) was calculated using the equation:
The efflux ratio was calculated using the equation: Efflux ratio=Papp(BA)/Papp(AB)
Percent recovery was calculated using the equation: % Recovery=100×[(Vr·Cr)+(Vd·Cd)]/(Vd·C0) Where Vd is the volume in the donor chambers (0.075 mL on the apical side, 0.25 mL on the basolateral side); Cd and Cr are the final concentrations of transport compound in donor and receiver chambers, respectively.

## CC(C)[C@H](NC(=O)[C@@H]1CCCN1C(=O)[C@@H](NC(=O)c1ccc(C(=O)NS(=O)(=O)c2ccc(Cl)cc2)cc1)C(C)C)B(O)O [Compound 51, (1-((S)-1-((4-(((4-chlorophenyl)sulfonyl)carbamoyl)benzoyl)-L-valyl)pyrrolidine-2-carboxamido)-2-methylpropyl)boronic acid]
In vitro [1]
  Extraction ratio: <0.3
  Microsomal stability (Mouse ER): <0.3
  Remaining (*NCF = 60min): 95.0%
  Remaining (T = 60 min): 85.8%
  CLint scaled at 1 μM: < 38 mL/min/kg
  half-life at 1 μM: > 2.42 h
  microsomal CLint at 1 μM: < 9.6 µL/min/mg
In vitro [2]; Caco-2, pH 7.4
  Papp A→B at 120 min, 2 μM: < 0.16 ×10⁻⁶ cm/s
  Papp A→B at 2 h, 2 μM: < 0.08 ×10⁻⁶ cm/s
  Papp B→A at 120 min, 2 μM: 0.61 ×10⁻⁶ cm/s
  Papp B→A at 2 h, 2 μM: < 0.12 ×10⁻⁶ cm/s
  efflux ratio at 2 h, 2 μM: > 3.91
In vitro [2]; Caco-2, pH 7.4, Mean Recovery % A to B
  recovery at 2 h, 2 μM: < 88.2%
In vitro [2]; Caco-2, pH 7.4, Mean Recovery % B to A
  recovery at 2 h, 2 μM: 99.1%

## CC(C)[C@H](NC(=O)[C@@H]1CCCN1C(=O)[C@@H](NC(=O)c1ccc(C(=O)NCC(=O)O)cc1)C(C)C)B(O)O [Compound 52, (4-(((2S)-1-((2S)-2-((1-borono-2-methylpropyl)carbamoyl)pyrrolidin-1-yl)-3-methyl-1-oxobutan-2-yl)carbamoyl)benzoyl)glycine]
In vitro [1]
  Extraction ratio: <0.3
  Microsomal stability (Mouse ER): <0.3
  Remaining (*NCF = 60min): 103.6%
  Remaining (T = 60 min): 78.9%
  CLint scaled at 1 μM: < 38 mL/min/kg
  half-life at 1 μM: > 2.42 h
  microsomal CLint at 1 μM: < 9.6 µL/min/mg
